We go through 5 compounds from patent publication US9309187B2, “EP2 receptor agonists” (TAKEDA GMBH, priority 2012, dated 2016).

Structures are written as SMILES.

For assay [1], the system named is TNFalpha release in human peripheral blood mononuclear cells (PBMC) stimulated with LPS. Nature of the assay: Inhibition of LPS induced TNFalpha release in human PBMCs. The format is cell-based. The conditions noted are these: 1 ng/mL LPS, 24 hours, reported as range bins, read-out: Inhibition of LPS induced TNFalpha release in human PBMCs pIC30 (-log IC30). How it is done: Method for Measuring the Inhibition of TNFalpha Release in Human Peripheral Blood MononuClear Cells (PBMC) Stimulated with LPS:
Assay was performed with some modifications of the method described by Hatzelmann and Schudt (Hatzelmann and Schudt 2001, J. Pharmacol. Exp. Therapeutics 297: 267-279) and the protocol “drawing of venous blood from healthy volunteers for in vitro studies” was approved by the ethics committee of the Landesärztekammer Baden Württemberg in Stuttgart. Peripheral blood mononuclear cells (PBMCs) were isolated from venous blood with the anticoagulant citrate from healthy donors according to standard protocols using Ficoll. The cell layer of PBMCs were washed twice with phosphate buffer solution and equilibrated at room temperature for 60 minutes. 500,000 PBMCs in 180 microL RPMI1640 cell medium supplemented with 10% FCS, NEAA (Non-essential-amino-acids), L-Glutamine and Sodium Pyruvate per sample were pre-incubated with 10 microL of a serial dilution of test compound or piclamilast as positive control for 60 min. at 37° C. After pre-incubation blood samples were stimulated by the addition of 10 microL LPS (Sigma, Aldrich) per sample resulting in a final concentration of 1 ng/mL LPS and a final volume of 200 microL. Cells were incubated for 24 hours at 37° C. TNFalpha levels were determined from cell supernatant that was obtained by a centrifugation step and transferring the supernatant to a new 96-well plate. Content of TNFalpha was determined via alphaLISA Technology according to manufacture protocol (Perkin Elmer).
PBMC samples that were not stimulated with LPS were used as control and set for 100% inhibition. PBMC samples that were stimulated with LPS and solvent instead of test compound were set as 0% inhibition. Percent inhibition was calculated based on these controls for each sample and since most compounds achieved saturating maximal inhibition of 60% a pIC30 value was calculated with GraphPad Prism Software.
For the following compounds the inhibitory values of TNFalpha release [determined as −log IC30=pIC30] in human PBMCs between 5.0 and 5.9, between 6.0 and 6.9, between 7.0 and 7.9 and between 8.0 and 9.0 have been determined. The numbers of the compounds correspond to the examples numbers.
Inhibition of LPS Induced TNFalpha Release Assay in Human PBMCs: pIC30

Assay [2] has as its system plasma TNFα after i.v. LPS. The assay is described as follows: In vivo assay: LPS-induced TNFα release in mice. Conditions: Mus musculus; p.o. 1 h prior to i.v. LPS 100 μg/kg; plasma TNFα 1 h after LPS. Also on record: species or system C57BL/6 mice. How it is done: In Vivo Assay: LPS-Induced TNFα Release in Mice
Intravenously administration of lipopolysaccharide (LPS) causes a systemic inflammation characterised by release of pro-inflammatory cytokines, e.g. tumor necrosis factor alpha (TNFα). Selective EP2 agonists are administered per oral 1 h prior intravenously LPS challenge in mice. The anti-inflammatory activity of the selective EP2 agonists is assessed based on TNFα levels in blood plasma 1 h after LPS challenge.
Female C57BL/6 mice weighing 20-25 g were used. Mice were delivered 1 week prior to the experiments and had free access to water and food.
The test compound was mixed with 1.33% polyethylenglycol 400 (PEG400, Merck, Darmstadt, Germany) and subsequently suspended in 2% methocel solution (hypromellose, Sigma, Steinheim, Germany) using the Covaris S2X System (K Biosciences Ltd.; Hoddesdon; United Kingdom). The aimed doses were prepared by dilution series from the stock suspension, which was prepared for the administration of the highest dose in each experiment.
The administered volume of the compound suspension is 10 mL/kg. On day of the experiment the mouse body weights were documented to calculate the volume to be administered. LPS challenged control animals received drug-free vehicle solution as placebo. Test compounds and vehicle were administered by oral gavage 1 h prior to LPS challenge.
LPS (from Escherichia coli 055:B5, Sigma, Steinheim, Germany) was solubilised in 0.9% sterile NaCl solution (B. Braun Melsungen AG, Melsungen, Germany) containing 0.1% hydroxylamine (Sigma, Steinheim, Germany). LPS is intravenously (i.v.) injected at a dose of 100 μg/kg (5 mL/kg b.w.) 1 h after compound or vehicle administration.
One hour after LPS-challenge, the animals were sacrificed by inhalative isoflurane anaesthesia and heparinised blood was obtained by retroorbital bleeding. Blood was centrifuged (21,000×g, 4° C., 10 min), and plasma samples were kept frozen at −20° C. until determination of TNFα levels by ELISA. TNFα was measured with a commercially available ELISA-Kit (Quantikine® Immunoassay Mouse TNFα, R&D Systems, Minneapolis, USA).
The compound effect on TNFα release was calculated individually in percent (%) for each compound treated animal in relation to the mean TNFα level of the vehicle treated LPS-challenged control group: % effect=(Y−K)/K*100 • with defining: • Y=plasma TNFα concentration of the compound treated animal • K=mean plasma TNFα concentration of the vehicle treated group
Statistical analysis was performed on the primary TNFα concentrations by One-Way ANOVA and Dunnett's Multiple Comparison test vs. vehicle-treated control group.

Assay [3] relates to TNFalpha release in human whole blood stimulated with LPS. The assay is described as follows: Inhibition of LPS induced TNFalpha release in human whole blood. The conditions noted are these: 1 microg/mL LPS, 4 hours, reported as range bins, read-out: Inhibition of LPS induced TNFalpha release in human whole blood pIC30 (-log IC30). The format is cell-based. On the procedure: Method for Measuring the Inhibition of TNFalpha Release in Human Whole Blood Stimulated with LPS:
Assay was performed with some modifications of the method described by Hatzelmann and Schudt (Hatzelmann and Schudt (2001) JPET 297: 267-279) and the protocol “drawing of venous blood from healthy volunteers for in vitro studies” was approved by the ethics committee of the Landesärztekammer Baden Württemberg in Stuttgart.
Heparinised venous blood was equilibrated to assay conditions for 1 hour at room temperature upon blood drawing. Immediately thereafter, 200 microL whole blood per sample were pre-incubated with 25 microL of a serial dilution of test compound or piclamilast as positive control for 30 min. at 37° C. After pre-incubation blood samples were stimulated by the addition of 25 microL lipopolysaccharide (LPS) (Sigma, Aldrich) per sample resulting in a final concentration of 1 microg/mL LPS and a final volume of 250 microL. Cells were incubated for 4 hours at 37° C. TNFalpha levels were determined from plasma that was obtained by a centrifugation step and transferring the supernatant to a new 96-well plate which was again centrifuged and clear plasma supernatant was used for the measurement of TNFalpha via alphaLISA Technology according to manufacture protocol (Perkin Elmer).
Whole blood samples that were not stimulated with LPS were used as control and set for 100% inhibition. Whole blood samples that were stimulated with LPS and solvent instead of test compound were set as 0% inhibition. Percent inhibition was calculated based on these controls for each sample and since most compounds achieved saturating maximal inhibition of 60% a pIC30 value was calculated with GraphPad Prism Software.
For the following compounds the inhibitory values of TNFalpha release [determined as −log IC30=pIC30] in the human whole blood assay between 4.5 and 4.9, between 5.0 and 5.9 and between 6.0 and 6.9 have been determined. The numbers of the compounds correspond to the examples numbers.
Inhibition of LPS Induced TNFalpha Release Assay in Human Whole Blood: pIC30

As usually defined, the IC30 is the point of the concentration-response curve where the effect stands at 30%. For orientation: ED50 means the midpoint of the dose-response relation. A low value points to greater potency. As for `O=C(O)/C=C/c1cccc(NC(=O)c2cc(-c3ccccc3)cc3ccccc23)c1` [Example 1, (2E)-3-(3-{[(3-phenylnaphthalen-1-yl)carbonyl]amino}phenyl)prop-2-enoic acid], the figures for the IC30 in assay [1] and in assay [3] were 1 to 10 nM and 126 to 1000 nM, respectively. The same compound yielded an ED50 in assay [2] of 0.1 to 3 mg/kg.
In the case of `O=C(O)/C=C/c1ccc(Cl)c(NC(=O)c2cc(-c3ccccc3)cc3ccccc23)c1` [Example 3, (2E)-3-(4-chloro-3-{[(3-phenylnaphthalen-1-yl)carbonyl]amino}phenyl)prop-2-enoic acid], the ED50 in assay [2] fell in the range of 0.1 to 3 mg/kg. Also, in assay [3], the IC30 was 12600 to 31600 nM.
With `O=C(O)/C=C/c1ccc(F)c(NC(=O)c2cc(-c3cccc(F)c3)cc3ccccc23)c1` [Example 10, (2E)-3-{3-[({3-[3-fluorophenyl]naphthalen-1-yl}carbonyl)amino]-4fluorophenyl}prop-2-enoic acid], the figures for the concentration for an effect of 30% (IC30) in assay [1] and in assay [3] were 1 to 10 nM and 126 to 1000 nM, respectively. The ED50 in assay [2] fell in the range of 0.1 to 3 mg/kg.
Consider `O=C(O)/C=C/c1ccc(F)c(NC(=O)c2cc(-c3ccccc3F)cc3ccccc23)c1` [Example 9, (2E)-3-{3-[({3-[2-fluorophenyl]naphthalen-1-yl}carbonyl)amino]-4fluorophenyl}prop-2-enoic acid], for which the IC30 fell in the range of 12.6 to 100 nM in assay [1] and 126 to 1000 nM in assay [3]. In addition, the ED50 in assay [2] lay within 0.1 to 3 mg/kg.
For the compound `O=C(O)/C=C/c1ccc(F)c(NC(=O)c2cc(-c3ccccc3)cc3ccccc23)c1` [Example 2, (2E)-3-(4-fluoro-3-{[(3-phenylnaphthalen-1-yl)carbonyl]amino}phenyl)prop-2-enoic acid], the IC30 was 1 to 10 nM in assay [1] and 126 to 1000 nM in assay [3]. In addition, in assay [2], the ED50 is 0.1 to 3 mg/kg.
